The target of data set [1] is T1, human muscarinic M3 receptor (Homo sapiens (Human), UniProt P20309). Nature of the data set: Antagonism assay on human muscarinic M3 receptor (carbachol-induced intracellular calcium, FLIPR Calcium 5, transfected Cos-7 cells). The class given is cell-based. The settings on record: functional inhibitory constant; carbachol-induced intracellular calcium in Cos-7 cells transfected with human M3 receptor. Summed up:
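Cos-7 cells transfected with human M3 receptor plasmid, pre-treated 3 min with compound, then carbachol-stimulated; intracellular calcium read by FLIPR Calcium 5.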

In data set [2] the test system is rhythmic bladder contractions. Nature of the data set: Rhythmic bladder contractions in rats (in vivo). Details: species or system rat. Conditions: 0.3 mpk, intravenous, female Sprague-Dawley rats; amplitude reduction of bladder contractions. Summed up:
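Halothane-anaesthetised female Sprague-Dawley rats had the bladder catheterised via the urethra, emptied, then slowly filled with 37 °C saline until stable rhythmic contractions, with pressure recorded by transducer. Compounds were given intravenously via the tail vein. Inhibition was measured as reduction in contraction amplitude.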

Data set [3] concerns Sprague-Dawley (SD) rats. Nature of the data set: Acute toxicity test for oral administration on rats. The class given is in vivo, rat. Conditions: observed for 4 days. As for the experimental part:
[Experimental Example 4] Acute Toxicity Test for Oral Administration on Rats
In order to confirm acute toxicity of the compounds of the present invention, following experiment was conducted. A low-dose group, a medi-dose group and a high-dose group, wherein the compounds of Examples were administered 100 mg/kg, 300 mg/kg and 1000 mg/kg respectively, were prepared. Methyl cellulose solution (0.5%) was prepared and orally administered to 3 rats of each group (i.e. both sexes of 6-week old Sprague-Dawley (SD) rats; male rats in 142-143 g; female rats in 126.3-127.3 g) in a volume of 10 mL/kg. Mortality, clinical signs and weight and the like were measured for 4 days, and discovered approximate lethal dose (ALD) therefrom were explained in Table 30 below.

Data set [4] has as its target T1, human muscarinic M3 receptor. Nature of the data set: Binding assay on human muscarinic M3 receptor ([3H]-methyl scopolamine displacement). Conditions: membranes overexpressing human M3 receptor, Ki from IC50 by Cheng-Prusoff, read-out: Binding Affinity to M3 Receptor, Ki. Summed up: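 Displacement of [3H]-methyl scopolamine from membranes overexpressing human M3, in Tris-HCl, 25 °C, 120 min; filter-bound radioactivity counted. Nonspecific binding with 5 μM atropine; Ki from IC50 via Cheng-Prusoff.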

A value given as a limit tells only on which side of the number the result lay.

T1 sequence (P20309 whole entry): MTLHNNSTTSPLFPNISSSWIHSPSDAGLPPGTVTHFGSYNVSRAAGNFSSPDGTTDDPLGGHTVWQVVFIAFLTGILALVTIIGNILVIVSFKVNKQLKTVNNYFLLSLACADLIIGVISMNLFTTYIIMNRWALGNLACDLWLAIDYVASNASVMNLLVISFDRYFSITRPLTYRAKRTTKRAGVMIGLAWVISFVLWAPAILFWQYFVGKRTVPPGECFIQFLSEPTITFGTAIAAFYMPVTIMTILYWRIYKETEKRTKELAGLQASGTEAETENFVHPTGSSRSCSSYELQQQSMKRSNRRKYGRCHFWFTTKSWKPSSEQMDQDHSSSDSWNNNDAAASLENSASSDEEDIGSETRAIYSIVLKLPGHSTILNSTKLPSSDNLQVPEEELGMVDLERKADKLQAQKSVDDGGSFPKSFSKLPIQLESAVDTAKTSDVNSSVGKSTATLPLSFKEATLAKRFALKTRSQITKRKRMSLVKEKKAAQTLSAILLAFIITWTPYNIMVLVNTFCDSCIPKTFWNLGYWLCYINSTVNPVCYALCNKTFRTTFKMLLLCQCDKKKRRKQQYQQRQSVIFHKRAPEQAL

Turning to `Cc1cccc(-c2ccccc2NC(=O)OCCC2CCCN2C)c1` (stereo not shown) [Example 15, 2-(1-methylpyrrolidin-2-yl)ethyl(3′-methyl-[1,1′-biphenyl]-2-yl)carbamate], the Ki in data set [1] amounted to 4.1 nM; in data set [4] it was 2.27 nM. Moreover, the “Inhibition of Rhythmic bladder contraction in rats” value (“Inhibition” below) in data set [2] is given as 25.6 ± 2.2%. Also, the “Approximate Lethal Dose (ALD)” value in data set [3] is recorded as over 1000 mg/kg.

In the case of `CN1CCCC1CCOC(=O)Nc1ccc(F)cc1-c1ccc(F)c(Cl)c1` (stereo not shown) [Example 53, 2-(1-methylpyrrolidin-2-yl)ethyl(3′-chloro-4′,5-difluoro-[1,1′-biphenyl]-2-yl)carbamate], the figures for the Ki in data set [1] and in data set [4] were 0.57 nM and 1.34 nM, respectively. In addition, the “Inhibition” value in data set [2] is listed as 28.0 ± 5.0%. Moreover, in data set [3], the “Approximate Lethal Dose (ALD)” value is reported as over 1000 mg/kg.

For `CN1CC[C@@H](COC(=O)Nc2ccccc2-c2ccccc2)C1` [Example 89, (R)-(1-methylpyrrolidin-3-yl)methyl [1,1′-biphenyl]-2-ylcarbamate], the Ki was 0.16 nM in data set [1] and 2.43 nM in data set [4]. The “Inhibition” value in data set [2] was found to be 33.9 ± 3.5%. Besides, the “Approximate Lethal Dose (ALD)” value in data set [3] is reported as over 1000 mg/kg.

Regarding `CN1CC[C@H](COC(=O)Nc2ccccc2-c2ccccc2)C1` [Example 90, (S)-(1-methylpyrrolidin-3-yl)methyl [1,1′-biphenyl]-2-ylcarbamate], the values for the Ki in data set [1] and in data set [4] were 0.17 nM and 1.97 nM, respectively. Besides, the “Inhibition” value in data set [2] is listed as 27.4 ± 1.9%. Further, the “Approximate Lethal Dose (ALD)” value in data set [3] was over 1000 mg/kg.

Turning to `CN1CC[C@@H](COC(=O)Nc2ccccc2-c2cc(F)cc(F)c2)C1` [Example 91, (R)-(1-methylpyrrolidin-3-yl)methyl (3′,5′-difluoro-[1,1′-biphenyl]-2-yl)carbamate], the Ki is 1.32 nM in data set [1] and 4.5 nM in data set [4]. Besides, the “Inhibition” value in data set [2] was 25.2 ± 2.5%. Moreover, in data set [3], the “Approximate Lethal Dose (ALD)” value is reported as over 1000 mg/kg.

As for `Cc1cccc(-c2ccccc2NC(=O)OC[C@@H]2CCN(C)C2)c1` [Example 100, (R)-(1-methylpyrrolidin-3-yl)methyl(3′-methyl-[1,1′-biphenyl]-2-yl)carbamate], the Ki worked out at 0.64 nM in data set [1] and 2.43 nM in data set [4]. In data set [2], the “Inhibition” value was 26.0 ± 6.0%. Also, the “Approximate Lethal Dose (ALD)” value in data set [3] is over 1000 mg/kg.

For the compound `CN1CC[C@@H](COC(=O)Nc2ccccc2-c2ccc(F)c(Cl)c2)C1` [Example 136, (R)-(1-methylpyrrolidin-3-yl)-methyl (3′-chloro-4′-fluoro-[1,1′-biphenyl]-2-yl)carbamate], the Ki in data set [1] was determined as 0.25 nM; in data set [4] it was 1.59 nM. Besides, the “Inhibition” value in data set [2] amounted to 33.2 ± 4.0%. For the same compound, the “Approximate Lethal Dose (ALD)” value in data set [3] is over 1000 mg/kg.

With `CN1CC[C@@H](COC(=O)Nc2ccc(F)cc2-c2ccc(F)c(Cl)c2)C1` [Example 143, (R)-(1-methylpyrrolidin-3-yl)methyl(3′-chloro-4′,5-difluoro-[1,1′-biphenyl]-2-yl)carbamate], the inhibition constant (Ki) in data set [1] is 0.68 nM; in data set [4], 1.12 nM. Besides, the “Inhibition” value in data set [2] was determined as 24.3 ± 5.5%. For the same compound, the “Approximate Lethal Dose (ALD)” value in data set [3] was over 1000 mg/kg.

In the case of `CCN1CC[C@@H](COC(=O)Nc2ccccc2-c2ccc(F)c(Cl)c2)C1` [Example 150, (R)-(1-ethylpyrrolidin-3-yl)methyl (3′-chloro-4′-fluoro-[1,1′-biphenyl]-2-yl)carbamate], the Ki in data set [1] turned out to be 1.34 nM; in data set [4] it was 5.6 nM. For the same compound, in data set [2], the “Inhibition” value was 25.1 ± 2.5%. Further, in data set [3], the “Approximate Lethal Dose (ALD)” value is over 1000 mg/kg.

With `Cc1cccc(-c2ccccc2NC(=O)OC[C@@H]2CCCN2C)c1` [Example 199, (S)-(1-methylpyrrolidin-2-yl)methyl(3′-methyl-[1,1′-biphenyl]-2-yl)carbamate], the inhibition constant (Ki) in data set [1] is 0.26 nM; in data set [4], 0.8 nM. Also, the “Inhibition” value in data set [2] is recorded as 27.8 ± 4.5%. Also, in data set [3], the “Approximate Lethal Dose (ALD)” value is over 1000 mg/kg.

For the origin of these results see patent US9828339B2, “Biphenyl derivatives and methods for preparing same” (DONG-A ST CO., LTD, priority 2013, dated 2017).
